{"source": "patent US5594022A", "about": "“Tachykinin antagonists” (Warner-Lambert Company, priority 1994, dated 1997)", "key": {"[1]": {"system": "NK1 receptor", "details": "literature; cited from earlier work"}, "[2]": {"molecular_target": "T1, NK1 receptor (Guinea Pig Trachea) (Cavia porcellus, UniProt P30547)", "T1 construct": "Trachea; from tissue; host or cells: guinea pig trachea", "T1 sequence (P30547 whole entry)": "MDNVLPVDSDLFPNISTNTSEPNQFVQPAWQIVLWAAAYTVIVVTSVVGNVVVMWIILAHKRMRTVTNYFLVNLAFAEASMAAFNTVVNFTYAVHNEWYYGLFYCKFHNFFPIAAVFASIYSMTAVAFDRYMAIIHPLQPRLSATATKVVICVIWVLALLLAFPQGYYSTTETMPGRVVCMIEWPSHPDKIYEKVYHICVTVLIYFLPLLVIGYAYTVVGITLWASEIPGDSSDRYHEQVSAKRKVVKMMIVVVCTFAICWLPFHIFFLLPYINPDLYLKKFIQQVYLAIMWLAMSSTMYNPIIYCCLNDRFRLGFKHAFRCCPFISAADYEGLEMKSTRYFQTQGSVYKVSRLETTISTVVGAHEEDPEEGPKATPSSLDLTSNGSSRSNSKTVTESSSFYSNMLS", "experiment": "NK1 antagonist activity, guinea pig trachea", "details": "read-out: NK1 Antagonist Activity pkB/pA2, Guinea Pig Trachea (converted)"}, "[3]": {"molecular_target": "T2, NK1 receptor (Guinea Pig Ileum) (Cavia porcellus, UniProt P30547)", "T2 construct": "Ileum; from tissue; host or cells: guinea pig ileum", "T2 sequence (P30547 whole entry)": "as above", "experiment": "NK1 antagonist activity, guinea pig ileum", "details": "read-out: NK1 Antagonist Activity pkB/pA2, Guinea Pig Ileum (converted)"}, "[4]": {"molecular_target": "T3, NK1 receptor (Cavia porcellus, UniProt P30547)", "T3 construct": "guinea pig cerebral cortex membranes; from tissue; host or cells: guinea pig cerebral cortex membranes", "T3 sequence (P30547 whole entry)": "as above", "experiment": "In vitro NK1 receptor binding ([125I] Bolton Hunter Substance-P, guinea pig cerebral cortex membranes)", "details": "[125I-BH]Substance-P 0.1 nM", "experimental": "The compounds of the invention were also evaluated in three tachykinin binding assays."}, "[5]": {"molecular_target": "T3, NK1 receptor", "experiment": "Antagonism of substance-P methylester in a number of in vitro NK1 preparations", "set-up": "species or system guinea pig", "source_text": "Therefore, it could be of use in therapeutic disorders where attenuation of the NK1 receptor response is an appropriate form of intervention."}, "[6]": {"molecular_target": "T3, NK1 receptor", "experiment": "Guinea pig plasma extravasation (antagonism of SPOMe-induced plasma protein extravasation in the bladder)", "format": "in vivo", "details": "read-out: ID50, Guinea Pig Plasma Extravasation"}, "[7]": {"system": "NK2 receptors", "details": "literature; cited from earlier work"}, "[8]": {"system": "NK3 receptors", "details": "literature; cited from earlier work"}, "[9]": {"details": "Binding IC50, In Vitro NK1 Receptor Binding"}, "[10]": {"details": "guinea pig bladder, IV, SPOMe-induced"}}, "note": "Entries after “also recorded” stand apart in the source; their conditions may differ. Counter-ions that a name gives are not always drawn. Like-named read-outs stand apart in the source and are kept apart here.", "data": [{"compound": "COc1ccccc1CN[C@H]1C2CCN(CC2)[C@H]1C(c1ccccc1)c1ccccc1", "note": "[CP-96,345]", "values": [{"measurement": "NK1 receptor affinity or activity, in words", "setting": "[1]", "value": "antagonists at the NK1 receptor"}]}, {"compound": "C[C@H](NC(=O)[C@@](C)(Cc1c[nH]c2ccccc12)NC(=O)OCc1ccccc1)c1ccccc1", "note": "[Example 15]", "values": [{"measurement": "Kb", "setting": "[2]", "value": 39.8, "unit": "nM"}, {"measurement": "Kb", "setting": "[3]", "value": 15.8, "unit": "nM"}, {"measurement": "IC50", "setting": "[4]; [9]", "value": 36, "unit": "nM"}, {"measurement": "NK1 receptor antagonism, in words", "setting": "[5]; listed as Ex. 15", "value": "antagonist of the NK1 receptor; also recorded: tachykinin NK1 receptor antagonist"}, {"measurement": "Kb", "setting": "[5]; read-out: pKB against substance-P methylester on these tissues (converted)", "value": "~10", "unit": "nM"}]}, {"compound": "Cc1ccc(COC(=O)N[C@](C)(Cc2c[nH]c3ccccc23)C(=O)N[C@@H](C)c2ccccc2)cc1", "note": "[Example 22]", "values": [{"measurement": "Kb", "setting": "[2]", "value": 100, "unit": "nM"}, {"measurement": "Kb", "setting": "[3]", "value": 15.8, "unit": "nM"}, {"measurement": "ED50", "setting": "[6]; guinea pig, iv", "value": 0.64, "unit": "mg/kg"}, {"measurement": "IC50", "setting": "[4]; [9]", "value": 17, "unit": "nM"}]}, {"compound": "C[C@H](NC(=O)[C@@](C)(Cc1c[nH]c2ccccc12)NC(=O)OCc1ccccc1F)c1ccccc1", "note": "[Example 47, (2-Fluorophenyl) methyl [R-(R*,S*)]-[1-(1H-insol-3-ylmethyl)-1-methyl-2-oxo-[1-phenylethyl)amino]ethyl]carbamate]", "values": [{"measurement": "Kb", "setting": "[2]", "value": 50.1, "unit": "nM"}, {"measurement": "Kb", "setting": "[3]", "value": 3.98, "unit": "nM"}, {"measurement": "ED50", "setting": "[6]; guinea pig, iv", "value": 0.13, "unit": "mg/kg"}, {"measurement": "IC50", "setting": "[4]; [9]", "value": 10, "unit": "nM"}]}, {"compound": "C[C@H](NC(=O)[C@@](C)(Cc1c[nH]c2ccccc12)NC(=O)OCc1ccc(F)cc1F)c1ccccc1", "note": "[Example 53, (2,4-Difluorophenyl) methyl [R-(R*,S*)]-[1-(1H-indol-3-ylmethyl)-1-methyl-2-oxo-2-[(1-phenylethyl)amino]ethyl]carbamate]", "values": [{"measurement": "Kb", "setting": "[2]", "value": 7.94, "unit": "nM"}, {"measurement": "Kb", "setting": "[3]", "value": 2.51, "unit": "nM"}, {"measurement": "ED50", "setting": "[6]; guinea pig, iv", "value": 0.071, "unit": "mg/kg"}, {"measurement": "IC50", "setting": "[4]; [9]", "value": 39, "unit": "nM"}]}, {"compound": "C[C@H](NC(=O)C(C)(Cc1csc2ccccc12)NC(=O)OCc1ccccc1)c1ccccc1", "note": "(stereo partly shown) [Example 60, Phenylmethyl [1-(benzo[b]thien-3-ylmethyl)-1-methyl-2-oxo-2-[(1-phenylethyl)amino]ethyl]carbamate]", "values": [{"measurement": "IC50", "setting": "[4]; read-out: Binding IC50, In Vitro NK1 Receptor Binding", "value": "> 1000", "unit": "nM"}]}, {"compound": "C[C@H](NC(=O)[C@@](C)(Cc1c[nH]c2ccccc12)NC(=O)OCc1cc2ccccc2o1)c1ccncc1", "note": "[Example 66, Carbamic acid, [1-(1H-indol-3-ylmethyl)-1-methyl-2-oxo-2-[[1-(4-pyridinyl)ethyl]amino]ethyl]-, 2-benzofuranylmethyl ester, monohydrochloride, [R-(R*,S*)]]", "values": [{"measurement": "ED50", "setting": "[6]; [10]", "value": 2.8, "unit": "mg/kg"}]}, {"compound": "CN(Cc1ccccc1)C(=O)[C@H](Cc1c[nH]c2ccccc12)NC(=O)OCc1cc2ccccc2o1", "note": "[Example 67, Carbamic acid, [1-(1H-indol-3-ylmethyl)-2-[methyl (phenylmethyl)amino]-2-oxoethyl]-, 2-benzofuranylmethyl ester, (S)--]", "values": [{"measurement": "Kb", "setting": "[3]", "value": 12.6, "unit": "nM"}, {"measurement": "ED50", "setting": "[6]; [10]", "value": 0.91, "unit": "mg/kg"}]}, {"compound": "CN(Cc1ccccc1)C(=O)[C@H](Cc1ccc2ccccc2c1)NC(=O)[C@@H]1C[C@@H](O)CN1C(=O)c1cn(C)c2ccccc12", "note": "[FK 888]", "values": [{"measurement": "NK1 receptor affinity or activity, in words", "setting": "[1]", "value": "high affinity for the NK1 receptor"}]}, {"compound": "COc1ccccc1CC(=N)N1C[C@@H]2C(=O)CCC(c3ccccc3)(c3ccccc3)[C@@H]2C1", "note": "[RP 67580]", "values": [{"measurement": "NK1 receptor affinity or activity, in words", "setting": "[1]", "value": "antagonists at the NK1 receptor"}]}, {"compound": "CC(=O)NC1(c2ccccc2)CCN(CC[C@H](CN(C)C(=O)c2ccccc2)c2ccc(Cl)c(Cl)c2)CC1", "note": "[SR 48969]", "values": [{"measurement": "NK2 receptor affinity or selectivity, in words", "setting": "[7]", "value": "high affinity and selectivity for NK2 receptors"}]}, {"compound": "NKA: mammalian tachykinin neuropeptide", "values": [{"measurement": "NK2 receptor affinity or selectivity, in words", "setting": "[7]", "value": "bind preferentially to NK2"}]}, {"compound": "NKB: mammalian tachykinin neuropeptide", "values": [{"measurement": "NK3 receptor binding, in words", "setting": "[8]", "value": "bind preferentially"}]}, {"compound": "Substance-P", "values": [{"measurement": "NK1 receptor affinity or activity, in words", "setting": "[1]", "value": "highest affinity for NK1 receptors"}]}]}
